What all share (assay type): physicochemical
Series [1] in a line: Solubility of tretinoin in ethanol, ester cosolvent or both. The procedure:
The method of preparing the solution is not critical. Typically, the cosolvents are combined and the retinoid is added with stirring at room temperature until completely solubilized.
It has been experimentally determined that tretinoin is not soluble in ethanol in the ratios set forth in Examples A-D:
Isopropyl myristate (“IPM”) can be replaced with alkyl benzoate, isopropyl palmitate (“IPP”) or diisopropyl adipate to achieve the same results.
In Examples E-J where alcohol is not present, the retinoids are not soluble in the esters alone. This further confirms the present finding that retinoids can be solubilized in a small amount of alcohol by using specific cosolvents.
To effectively utilize the chamber in a chamber delivery system, one must balance the concentration of the actives in both chambers. This is necessary to achieve the final, active concentration, which is efficacious as well as compliant with the FDA. The present disclosure teaches how to prepare higher concentrations of tretinoin in solution for the small chamber by using lower concentrations of alcohol by means of cosolvents such a alkyl benzoate, isopropyl myristate, and isopropyl palmitate.

A short description of series [2]: Elevated temperature stability of the actives in the oil in water emulsion of Example 10. The note with it: Example 10 emulsion. On the procedure:
The elevated temperature stability of the actives in the oil in water emulsion of Example 10 was determined using techniques within the purview of those skilled in the art.

Series [3] is described as follows: Elevated temperature stability of the actives in the liquid to powder suspension system of Example 13. The settings on record: Example 13 suspension. On the procedure:
The elevated temperature stability of the actives in the liquid to powder suspension system of Example 13 was determined using techniques known to those skilled in the art.

Where [4] appears, read: 25° C., 2 months, unit not given.
The mark [5] stands for this setting: 25° C., 3 months, unit not given.
[6] abbreviates: 30° C., 1 month, unit not given.
[7] abbreviates: 30° C., 2 months, unit not given.
Where [8] appears, read: 30° C., 3 months, unit not given.

In the case of `CC1=C(/C=C/C(C)=C/C=C/C(C)=C/C(=O)O)C(C)(C)CCC1` [Tretinoin], the “dissolution in alcohol using ester cosolvent” value in series [1] (1 gram of tretinoin in 3 grams of alcohol (33.3 percent solution) with alkyl benzoate, isopropyl myristate, isopropyl palmitate or other esters) was “completely dissolved”. Also, the solubility in ethanol entry in series [1] (ethanol alone, tretinoin:ethanol ratios of Examples A-D) is “not soluble”. The “solubility in ethanol plus cosolvent (clear solution)” value in series [1] (same tretinoin:ethanol ratios, cosolvent IPM added (Examples 1-4)) was “completely dissolve into a clear solution”. Also, the “active content, 25° C., 2 months” value in series [2] (setting [4]) worked out at 0.0497; in series [3] (setting [4]), 0.0499. Further, the “active content, 25° C., 3 months” value in series [2] (setting [5]) and in series [3] (setting [5]) was 0.0497 in each case. Moreover, the “active content, 30° C., 1 month” value was determined as 0.0490 in series [2] (setting [6]) and 0.051 in series [3] (setting [6]). For the same molecule, the “active content, 30° C., 2 months” value in series [2] (setting [7]) is listed as 0.0490; in series [3] (setting [7]) it was 0.0498. The “active content, 30° C., 3 months” value was found to be 0.0490 in series [2] (setting [8]) and 0.0488 in series [3] (setting [8]). Besides, the results for the “active content, Initial” value in series [2] (initial) and in series [3] (initial) were 0.0497% and 0.0517%, respectively. Besides, in series [3] (25° C., 1 month, unit not given), the “active content, 25° C., 1 month” value came out at 0.0508.

Source of the values: US20060014834A1, “Retinoid solutions and formulations made therefrom” (priority 2004, published 2006).
